Patent US20240392240A1, “PIG EMBRYO-DERIVED PLURIPOTENT STEM CELLS AND USE THEREOF” (CHINA AGRICULTURAL UNIVERSITY, priority 2021, published 2024)
Entries after “also recorded” stand apart in the source; their conditions may differ.

How the values were obtained:
Format in all cases: cell-based, pig
pgEpiSCs [1] = experiment: qRT-PCR of marker gene mRNA in pgEpiSCs in modified 3i/LAF medium
Protocol: Total RNA from pgEpiSCs was extracted using the RNAprep Pure Cell/Bacteria Kit (TIANGEN, DP430), and then reverse transcribed to cDNA using 5×All-in-One RT Master Mix (Abm, G490). PCR was performed on a LightCycler480 II Real Time System (Roche) using 2×RealStar Green Power Mixture (GenStar, A311-05). The data were analyzed using the comparative CT (2^−ΔΔCT) method. ΔCT was calculated using EF1A as an internal control. All experiments were performed in three biological replicates. Primers used for quantitative real-time PCR are listed in the Resource table.
(§1) According to the 3i/LAF medium and its culture method described in Example 1, the inventors tested the requirement for each factor in the 3i/LAF medium for long-term in vitro maintenance of pgEpiSCs on the basis of removing the small molecule inhibitors and cytokines from the culture medium one by one without altering the other conditions.

pgEpiSCs [2] = experiment: Immunostaining of POU5F1 and EOMES in pgEpiSCs; details: factor removed from 3i/LAF medium; FIG. 2-1C
Protocol: Cells were washed with DPBS (Gibco, C14190500BT) and fixed with 4% paraformaldehyde for 30 min at room temperature, then washed with DPBS again, permeabilized in 0.1% Triton X-100 for 20 min and blocked with 3% BSA for 1 hour. Cells were incubated with primary antibody diluted with 3% BSA at 4° C. overnight. Cells were then washed three times for 3 min each with wash buffer (DPBS containing 0.1% Triton X-100 and 0.1% Tween 20). The secondary antibody was diluted, and incubated with wash buffer for 1 hour at room temperature, then washed three times for 5 min each with wash buffer, and then the nuclei were stained with DAPI (Roche Life Science, 10236276001) for 3 min.
as §1

pgEpiSCs [3] = experiment: Clone morphology and alkaline phosphatase (AP) staining of pgEpiSCs in modified 3i/LAF medium; details: for clone morphology and AP staining signal after removal of the factor: factor removed from 3i/LAF medium, other conditions unchanged, FIG. 2-1A
Protocol: The alkaline phosphatase staining of pgEpiSC was based on the Alkaline Phosphatase Assay Kit (Millipore, SCR004). Specific experimental steps followed the instructions of the kit.
Epiblast from pig E8-E10 embryos was obtained, and the epiblast was treated with TrypLE™ Express followed by repeatedly blowing to disperse into small cell masses. The cell masses were then inoculated into 12-well cell culture dishes (density of the feeder layer cells were approximately 2×10^5 cells/well) supplemented with 750 μL of 3i/LAF medium (Note: 10 μM Y27632 was added into the 3i/LAF medium), wherein the feeder layer cells were mouse embryonic fibroblasts treated with mitomycin C (Selleckchem, S8146) and cultured in an incubator at 37° C., 100% humidity, and 5% CO2. After 12 hrs, another 750 μL of 3i/LAF medium was added without changing the medium, and after 24 hrs, the medium was replaced with fresh 3i/LAF medium (containing 2 μM Y27632). After that, the medium was replaced with fresh medium every 12 hrs, and after the clones grew for 2-3 days, the morphology of the clones was observed and the clones were digested for passaging.
as §1
Experimental method: pgEpiSCs were cultured with the adjusted medium, after which AP staining was performed on the cultured pgEpiSCs of P1 (indicating the pgEpiSCs after 1 passage in the adjusted medium) or P3 (indicating the pgEpiSCs after 3 passages in the adjusted medium). The specific steps of AP staining are described in the section of Experimental Methods described previously.

pgEpiSCs [4] = experiment: Cell proliferation, survival and passaging of pgEpiSCs; details: for proliferation and passaging of pgEpiSCs: FGF2 removed and ERK/MEK inhibitor PD0325901 added, FIG. 2-1I to 2-1K
Protocol: pgEpiSCs were cultured in a 12-well plate. Cell samples were inoculated at a density of 2× 10^4 cells per well in triplicate. The number of cells was counted every 12 hours. For each time point, cells were digested and counted using a Luna™ Automated Cell Counter, and the results of three counts were averaged and plotted. The cell doubling time was calculated as follows: doubling time (DT)=24×[lg2/(lgNt−lgN0)], where 24 is the cell culture time (hour); Nt is the number of cells cultured for 48 hours; and No is the number of cells recorded at 24 hours.
as §1

phosphorylated STAT3 = experiment: Western blot of phosphorylated STAT3 in pgEpiSCs; details: with or without LIF; FIG. 2-1M
Protocol: Total proteins were extracted from cells by cell lysis buffer (Beyotime Biotechnology, P0013), and nuclear and cytoplasmic proteins were extracted using the nucleus and cytoplasmic protein extraction kit (Beyotime Biotechnology, P0027) supplemented with protease and phosphatase inhibitor cocktail (Beyotime Biotechnology, P1050) to extract nuclear and cytoplasmic proteins. The concentration of extracted proteins was measured using the Bradford Protein Assay Kit (Bio-red, 5000201). An equal amount of proteins (15 μg) was separated by SDS-PAGE gel electrophoresis, which were transferred from the gel to Immobilon-P transfer membrane (Merck Millipore; pore size: 0.45 μm; IPVH00010). The blots were blocked in 5% nonfat powdered milk (Sangon Biotech, A600669-0250) in TBST (20 mM Tris, pH 7.5; 150 mM NaCl; 0.1% Tween 20) at room temperature for 1 hour and then incubated with primary antibodies diluted in 5% nonfat powdered milk in TBST overnight at 4° C. The next day, the blots were rinsed three times with TBST for 5 minutes each time, then incubated together with HRP-coupled secondary antibody diluted in 5% nonfat powdered milk in TBST for 1 hour at room temperature. The blots were developed with SuperSignal West Dura Extended Duration Substrate (Thermo Fisher Scientific, 34075), and the intensity of the bands of the target proteins was analyzed using CLINX chemiluminescence software. […]

[5] = high concentration of CHIR99021 in the medium, FIG. 2-1E, 2-1F, 2-2C, 2-2D
[6] = factor removed from 3i/LAF medium, FIG. 2-1B
[7] = inhibitor added into the culture medium, FIG. 2-1H
[8] = only IWR-1-endo replaced with XAV939, FIG. 2-2A
[9] = only IWR-1-endo replaced with XAV939, FIG. 2-2B

With `Cc1c[nH]c(-c2cnc(NCCNc3ccc(C#N)cn3)nc2-c2ccc(Cl)cc2Cl)n1` [CHIR99021] the “expression of cell proliferation-related genes (LIN28A, C-MYC, ETV4, ETV5) after removal of the factor” value (pgEpiSCs [1]; factor removed from 3i/LAF medium, FIG. 2-1D) was “down-regulated”, the “expression of GATA6 at high concentration” value (pgEpiSCs [1]; [5]) was “significant up-regulation; also recorded: up-regulated” and the “expression of pluripotency marker POU5F1 at high concentration” value (pgEpiSCs [1]; [5]) was “down-regulation; also recorded: decreased”.
In the case of `O=C(Nc1cccc2cccnc12)c1ccc(N2C(=O)[C@@H]3[C@H](C2=O)[C@@H]2C=C[C@H]3C2)cc1` [IWR-1-endo], the “mesodermal and endodermal progenitor marker EOMES immunostaining after removal of the factor” value (pgEpiSCs [2]) is reported as “promoting the expression”, the “pluripotency factor POU5F1 immunostaining after removal of the factor” value (pgEpiSCs [2]) is reported as “reduced accumulation or heterogeneity” and the “clone morphology and AP staining signal after removal of the factor” value (pgEpiSCs [3]; 2-1L) is reported as “poorly defined boundaries of the pgEpiSC clone”. The “expression of core pluripotency factors (NANOG, POU5F1, SOX2, REX1) after removal of the factor” value (pgEpiSCs [1]; [6]) was “significant down-regulation” and the “expression of gastrulation marker genes BMP2, BMP4, EOMES and T after removal of the factor” value (pgEpiSCs [1]; [6]) was “up-regulation”.
In the case of `O=C(NOC[C@H](O)CO)c1ccc(F)c(F)c1Nc1ccc(I)cc1F` [PD0325901], the “proliferation and passaging of pgEpiSCs” value (pgEpiSCs [4]) is reported as “could not proliferate or be passaged normally”.
`NC(=O)c1ccc(-c2nc(-c3ccc4c(c3)OCO4)c(-c3ccccn3)[nH]2)cc1` [SB431542] was tested, and the “clone morphology after addition of the inhibitor” value (pgEpiSCs [3]; inhibitor added into the culture medium, FIG. 2-1G, 2-1L) was “irregular clone morphology”, the “level of NANOG after addition of the inhibitor” value (pgEpiSCs [1]; inhibitor added into the culture medium, FIG. 2-1G, 2-1H) was “dramatic decrease” and the “BMP4 and BMP downstream transcription factors (ID2, ID3) after addition of the inhibitor” value (pgEpiSCs [1]; [7]) was “significant increase”. For the same compound, the “pluripotency markers (POU5F1, REX1) after addition of the inhibitor” value (pgEpiSCs [1]; [7]) was “significant decrease”.
In the case of `COc1ccc(N(C(=O)Oc2c(C)cccc2C)c2ccnc(Nc3ccc(N4CCN(C)CC4)cc3)n2)c(OC)c1` [WH-4-023], the “mesodermal and endodermal progenitor marker EOMES immunostaining after removal of the factor” value (pgEpiSCs [2]) is reported as “promoting the expression”, the “pluripotency factor POU5F1 immunostaining after removal of the factor” value (pgEpiSCs [2]) is reported as “reduced accumulation or heterogeneity” and the “expression of gastrulation marker genes BMP2, BMP4, EOMES and T after removal of the factor” value (pgEpiSCs [1]; [6]) is reported as “up-regulation”.
`Oc1nc(-c2ccc(C(F)(F)F)cc2)nc2c1CSCC2` [XAV939] was tested, and the “passaging at which AP positivity was lost (figure legend)” value (pgEpiSCs [3]; IWR-1-endo replacement with XAV939, FIG. 2-2A) was “around 8 passages of passaging”, the “maintenance of pluripotency after IWR-1-endo replacement” value (pgEpiSCs [3]; [8]) was “unable to maintain pluripotency for a long period of time” and the “passaging at which AP positivity was lost” value (pgEpiSCs [3]; [8]) was “about 8 generations of passaging”. The “expression of core pluripotency factor OCT4 (POU5F1) after IWR-1-endo replacement” value (pgEpiSCs [1]; [9]) was “down-regulated” and the “expression of pluripotency factors REX1, STELLA and ESRRB after IWR-1-endo replacement” value (pgEpiSCs [1]; [9]) was “down-regulated”.
With “Activin A: TGF-β superfamily member, cytokine of the 3i/LAF medium (Peprotech, 120-14E)” the “level of pluripotency marker NANOG after removal of the factor” value (pgEpiSCs [1]; factor removed from 3i/LAF medium, FIG. 2-1G, 2-1H) was “decrease”.
For “FGF2: fibroblast growth factor, cytokine of the 3i/LAF medium (Peprotech, 100-18B)”, the “proliferation and passaging of pgEpiSCs” value (pgEpiSCs [4]) was “could not proliferate or be passaged normally”, the “proliferative capacity of pgEpiSCs on decreasing the concentration” value (pgEpiSCs [4]; decreasing FGF2 concentration, all other conditions unchanged, FIG. 2-1K) was “significantly reduced” and the “cell proliferation at high concentrations” value (pgEpiSCs [4]; high concentrations of FGF2, FIG. 2-1K) was “faster cell proliferation”.
For “LIF: cytokine of the 3i/LAF medium (PeproTech, 300-05)”, the “clone morphology and AP staining signal after removal of the factor” value (pgEpiSCs [3]; 2-1L) was “not necessary to maintain the morphology” and the “detection of phosphorylated STAT3” value (phosphorylated STAT3) was “could be detected only in the presence of LIF”.
